The values below come from patent US8318746B2, “Nitrogen-containing five-membered heterocyclic compound” (Takeda Pharmaceutical Company Limited, priority 2007, dated 2012).

Structures can show the parent of a compound that is named as a salt. Some results are limits rather than exact numbers.

A word on the melting point: it is the temperature, or range, at which the solid turns liquid. In turn, `CC(=O)N1CCN(Cc2cnc(-c3ccc(C(CC4CCOCC4)c4ccc(S(=O)(=O)C5CC5)cc4)[nH]3)s2)CC1.Cl` (centres unmarked) yielded a melting point of 156 to 158 °C. With `Cl.O=C1CCN(Cc2cnc(-c3ccc(C(CC4CCOCC4)c4ccc(S(=O)(=O)C5CC5)cc4)[nH]3)s2)CC1` (centres unmarked) the figure was 146 to 148 °C; with `O=C(O)CCc1cnc(-c2ccc(C(CC3CCOCC3)c3ccc(S(=O)(=O)C4CC4)cc3)[nH]2)s1` (centres unmarked) (as salt: calcium) [Example 163, 3-[2-(5-{1-[4-(cyclopropylsulfonyl)phenyl]-2-(tetrahydro-2H-pyran-4-yl)ethyl}-1H-pyrrol-2-yl)-1,3-thiazol-5-yl]propanoic acid 1/2 calcium salt], > 194 °C (dec.). The figure for `CC(c1cnc(-c2ccc(C(CC3CCOCC3)c3ccc(S(=O)(=O)C4CC4)cc3)[nH]2)s1)N(C)C` (centres unmarked) (as salt: hydrochloride) [Example 157, 1-[2-(5-{1-[4-(cyclopropylsulfonyl)phenyl]-2-(tetrahydro-2H-pyran-4-yl)ethyl}-1H-pyrrol-2-yl)-1,3-thiazol-5-yl]-N,N-dimethylethanamine dihydrochloride] is 147 to 148 °C. With `O=C1CC[C@H](CC(c2ccc(S(=O)(=O)C3CC3)cc2)c2ccc(-c3nccs3)[nH]2)C1` (stereo partly drawn) [Example 102, (3R)-3-{2-[4-(cyclopropylsulfonyl)phenyl]-2-[5-(1,3-thiazol-2-yl)-1H-pyrrol-2-yl]ethyl}cyclopentanone] the figure was 165 to 167 °C; with `CCOC(=O)c1cc(-c2nccs2)[nH]c1C(CC1CCOCC1)c1ccc(S(=O)(=O)C2CC2)cc1` (centres unmarked) [Example 103, Ethyl 2-{1-[4-(cyclopropylsulfonyl)phenyl]-2-(tetrahydro-2H-pyran-4-yl)ethyl}-5-(1,3-thiazol-2-yl)-1H-pyrrole-3-carboxylate], 178 to 179 °C. Consider `O=C(O)c1cc(-c2nccs2)[nH]c1C(CC1CCOCC1)c1ccc(S(=O)(=O)C2CC2)cc1` (centres unmarked) [Example 104, 2-{1-[4-(cyclopropylsulfonyl)phenyl]-2-(tetrahydro-2H-pyran-4-yl)ethyl}-5-(1,3-thiazol-2-yl)-1H-pyrrole-3-carboxylic acid], for which the melting point was 153 to 155 °C. The compound `CN(C)C(=O)c1cc(-c2nccs2)[nH]c1C(CC1CCOCC1)c1ccc(S(=O)(=O)C2CC2)cc1` (centres unmarked) [Example 105, 2-{1-[4-(cyclopropylsulfonyl)phenyl]-2-(tetrahydro-2H-pyran-4-yl)ethyl}-N,N-dimethyl-5-(1,3-thiazol-2-yl)-1H-pyrrole-3-carboxamide] gave a melting point of 180 to 182 °C. With `NC(=O)c1cc(-c2nccs2)[nH]c1C(CC1CCOCC1)c1ccc(S(=O)(=O)C2CC2)cc1` (centres unmarked) [Example 106, 2-{1-[4-(cyclopropylsulfonyl)phenyl]-2-(tetrahydro-2H-pyran-4-yl)ethyl}-5-(1,3-thiazol-2-yl)-1H-pyrrole-3-carboxamide] the figure was 241 to 243 °C; with `N#Cc1cc(-c2nccs2)[nH]c1C(CC1CCOCC1)c1ccc(S(=O)(=O)C2CC2)cc1` (centres unmarked) [Example 107, 2-{1-[4-(cyclopropylsulfonyl)phenyl]-2-(tetrahydro-2H-pyran-4-yl)ethyl}-5-(1,3-thiazol-2-yl)-1H-pyrrole-3-carbonitrile], 114 to 116 °C. Consider `CC(C)(O)COc1ccc(-c2ccc(C(CC3CCOCC3)c3ccc(S(=O)(=O)C4CC4)cc3)[nH]2)nc1` (centres unmarked) [Example 116, 1-{[6-(5-{1-[4-(cyclopropylsulfonyl)phenyl]-2-(tetrahydro-2H-pyran-4-yl)ethyl}-1H-pyrrol-2-yl)pyridin-3-yl]oxy}-2-methylpropan-2-ol], for which the melting point is 110 to 112 °C.

In the case of `CC(O)COc1ccc(-c2ccc(C(CC3CCOCC3)c3ccc(S(=O)(=O)C4CC4)cc3)[nH]2)nc1` (centres unmarked) [Example 117, 1-{[6-(5-{1-[4-(cyclopropylsulfonyl)phenyl]-2-(tetrahydro-2H-pyran-4-yl)ethyl}-1H-pyrrol-2-yl)pyridin-3-yl]oxy}propan-2-ol], the melting point lay in the range of 116 to 118 °C. With `COC(=O)c1ccc(-c2ccc(C(CC3CCOCC3)c3ccc(S(=O)(=O)C4CC4)cc3)[nH]2)nc1` (centres unmarked) [Example 118, Methyl 6-(5-{1-[4-(cyclopropylsulfonyl)phenyl]-2-(tetrahydro-2H-pyran-4-yl)ethyl}-1H-pyrrol-2-yl)pyridine-3-carboxylate] the figure was 150 to 152 °C; with `O=C(NC1CC1)c1ccc(-c2ccc(C(CC3CCOCC3)c3ccc(S(=O)(=O)C4CC4)cc3)[nH]2)nc1` (centres unmarked) [Example 119, N-cyclopropyl-6-(5-{1-[4-(cyclopropylsulfonyl)phenyl]-2-(tetrahydro-2H-pyran-4-yl)ethyl}-1H-pyrrol-2-yl)pyridine-3-carboxamide], 134 to 136 °C; with `O=C(c1ccc(-c2ccc(C(CC3CCOCC3)c3ccc(S(=O)(=O)C4CC4)cc3)[nH]2)nc1)N1CCC1` (centres unmarked) [Example 120], 109 to 110 °C. Consider `O=C(c1ccc(-c2ccc(C(CC3CCOCC3)c3ccc(S(=O)(=O)C4CC4)cc3)[nH]2)nc1)N1CCOCC1` (centres unmarked) [Example 121, 5-(morpholin-4-ylcarbonyl)-2-(5-[1-[4-(cyclopropylsulfonyl)phenyl]-2-(tetrahydro-2H-pyran-4-yl)ethyl]-1H-pyrrol-2-yl)pyridine], for which the melting point was in the range of 114 to 116 °C.

In the case of `CCOCCNC(=O)c1ccc(-c2ccc(C(CC3CCOCC3)c3ccc(S(=O)(=O)C4CC4)cc3)[nH]2)nc1` (centres unmarked) [Example 122, 6-(5-{1-[4-(cyclopropylsulfonyl)phenyl]-2-(tetrahydro-2H-pyran-4-yl)ethyl}-1H-pyrrol-2-yl)-N-(2-ethoxyethyl)pyridine-3-carboxamide], the melting point is 87 to 90 °C. The figure for `CC(C)(O)CNC(=O)c1ccc(-c2ccc(C(CC3CCOCC3)c3ccc(S(=O)(=O)C4CC4)cc3)[nH]2)nc1` (centres unmarked) [Example 123, 6-(5-[1-[4-(cyclopropylsulfonyl)phenyl]-2-(tetrahydro-2H-pyran-4-yl)ethyl]-1H-pyrrol-2-yl)-N-(2-hydroxy-2-methylpropyl)pyridine-3-carboxamide] is 126 to 128 °C; for `NC(=O)c1ccc(-c2ccc(C(CC3CCOCC3)c3ccc(S(=O)(=O)C4CC4)cc3)[nH]2)nc1` (centres unmarked) [Example 124, 6-(5-{1-[4-(cyclopropylsulfonyl)phenyl]-2-(tetrahydro-2H-pyran-4-yl)ethyl}-1H-pyrrol-2-yl)pyridine-3-carboxamide] it is 136 to 138 °C. With `CC(C)(O)c1ccc(-c2ccc(C(CC3CCOCC3)c3ccc(S(=O)(=O)C4CC4)cc3)[nH]2)nc1` (centres unmarked) [Example 125, 2-[6-(5-{1-[4-(cyclopropylsulfonyl)phenyl]-2-(tetrahydro-2H-pyran-4-yl)ethyl}-1H-pyrrol-2-yl)pyridin-3-yl]propan-2-ol] the figure was 112 to 114 °C; with `CC(C)=Cc1ccc(-c2ccc(C(CC3CCOCC3)c3ccc(S(=O)(=O)C4CC4)cc3)[nH]2)nc1` (centres unmarked) [Example 126, 2-(5-{1-[4-(cyclopropylsulfonyl)phenyl]-2-(tetrahydro-2H-pyran-4-yl)ethyl}-1H-pyrrol-2-yl)-5-(2-methylprop-1-en-1-yl)pyridine], 114 to 116 °C; with `N#CCc1ccc(-c2ccc(C(CC3CCOCC3)c3ccc(S(=O)(=O)C4CC4)cc3)[nH]2)nc1` (centres unmarked) [Example 128, [6-(5-{1-[4-(cyclopropylsulfonyl)phenyl]-2-(tetrahydro-2H-pyran-4-yl)ethyl}-1H-pyrrol-2-yl)pyridin-3-yl]acetonitrile], 139 to 141 °C. With `O=C(O)Cc1ccc(-c2ccc(C(CC3CCOCC3)c3ccc(S(=O)(=O)C4CC4)cc3)[nH]2)nc1` (centres unmarked) [Example 129, [6-(5-{1-[4-(cyclopropylsulfonyl)phenyl]-2-(tetrahydro-2H-pyran-4-yl)ethyl}-1H-pyrrol-2-yl)pyridin-3-yl]acetic acid] the figure was 124 to 127 °C; with `O=C(Cc1ccc(-c2ccc(C(CC3CCOCC3)c3ccc(S(=O)(=O)C4CC4)cc3)[nH]2)nc1)N1CCOCC1` (centres unmarked) [Example 130, 4-{[6-(5-{1-[4-(cyclopropylsulfonyl)phenyl]-2-(tetrahydro-2H-pyran-4-yl)ethyl}-1H-pyrrol-2-yl)pyridin-3-yl]acetyl}morpholine], 202 to 203 °C; with `O=C(Cc1ccc(-c2ccc(C(CC3CCOCC3)c3ccc(S(=O)(=O)C4CC4)cc3)[nH]2)nc1)N1CCC1` (centres unmarked) [Example 131, 5-(2-(azetidin-1-yl)-2-oxoethyl)-2-(5-{1-[4-(cyclopropylsulfonyl)phenyl]-2-(tetrahydro-2H-pyran-4-yl)ethyl}-1H-pyrrol-2-yl)pyridine], 94 to 98 °C. Consider `NC(=O)Cc1ccc(-c2ccc(C(CC3CCOCC3)c3ccc(S(=O)(=O)C4CC4)cc3)[nH]2)nc1` (centres unmarked) [Example 132, 2-[6-(5-{1-[4-(cyclopropylsulfonyl)phenyl]-2-(tetrahydro-2H-pyran-4-yl)ethyl}-1H-pyrrol-2-yl)pyridin-3-yl]acetamide], for which the melting point was in the range of 151 to 153 °C. As for `CC(C)(O)C(O)c1ccc(-c2ccc(C(CC3CCOCC3)c3ccc(S(C)(=O)=O)c(Cl)c3)[nH]2)nc1` (centres unmarked) [Example 133, 1-[6-(5-{1-[3-chloro-4-(methylsulfonyl)phenyl]-2-(tetrahydro-2H-pyran-4-yl)ethyl}-1H-pyrrol-2-yl)pyridin-3-yl]-2-methylpropane-1,2-diol], the melting point was 138 to 140 °C. For the compound `CS(=O)(=O)c1ccc(C(CC2CCOCC2)c2ccc(-c3ccccn3)[nH]2)cn1` (centres unmarked) [Example 137, 2-(methylsulfonyl)-5-[1-(5-(pyridin-2-yl)-1H-pyrrol-2-yl)-2-(tetrahydro-2H-pyran-4-yl)ethyl]pyridine], the melting point lay within 89 to 90 °C. With `O=C1CN(Cc2cnc(-c3ccc(C(CC4CCOCC4)c4ccc(S(=O)(=O)C5CC5)cc4)[nH]3)s2)C(=O)N1` (centres unmarked) [Example 147, 1-{[2-(5-{1-[4-(cyclopropylsulfonyl)phenyl]-2-(tetrahydro-2H-pyran-4-yl)ethyl}-1H-pyrrol-2-yl)-1,3-thiazol-5-yl]methyl}imidazolidine-2,4-dione] the figure was 184 to 185 °C.
